Test results: ChEMBL document CHEMBL3639007, “Cyclohexyl amide derivatives as CRF receptor antagonists” (2014)
Several values for one entry are separate records, joined by “and”; a condition that tells them apart may be missing. Identical values can stand only once.

These compounds were tested against T1, Corticotropin-releasing factor receptor 1 (Homo sapiens, UniProt P34998) (assay: (§1) Homogeneous Time-Resolved Fluorescence Assay: Chinese hamster ovary (CHO) cells expressing either the human or rat recombinant CRF-1 or human CRF-2alpha (Chen et al, Proc Natl Acad Sci USA 90, 8967-8971, 1993; Liaw et al, Endocrinology 137, 72-77, 1996) are propagated in Dulbecco's modified Eagle medium supplemented with 10% foetal calf serum, non-essential amino acids, 100 U/ml penicillin, 100 mg/l streptomycin and 1 g/l geneticin. CHO cells expressing the rat CRF-2beta receptor (Wu et al, Endocrinology 148, 1675-1687, 2007) are propagated in HAM's-F12 Glutamax supplemented with 10% foetal calf serum, 100 IU/ml penicillin, 100 mg/l streptomycin, 600 ug/ml hygromycin, 10 ug/ml blasticidin and induced with 1 ug/ml of tetracyclin for 24 hours prior to experimentation. For cyclic AMP determinations the Homogeneous Time-Resolved Fluoresce (HTRF) CAMP dynamic 2 kit (Cisbio International, France) was used as per manufacturers' instructions.).
T1 sequence (P34998 whole entry): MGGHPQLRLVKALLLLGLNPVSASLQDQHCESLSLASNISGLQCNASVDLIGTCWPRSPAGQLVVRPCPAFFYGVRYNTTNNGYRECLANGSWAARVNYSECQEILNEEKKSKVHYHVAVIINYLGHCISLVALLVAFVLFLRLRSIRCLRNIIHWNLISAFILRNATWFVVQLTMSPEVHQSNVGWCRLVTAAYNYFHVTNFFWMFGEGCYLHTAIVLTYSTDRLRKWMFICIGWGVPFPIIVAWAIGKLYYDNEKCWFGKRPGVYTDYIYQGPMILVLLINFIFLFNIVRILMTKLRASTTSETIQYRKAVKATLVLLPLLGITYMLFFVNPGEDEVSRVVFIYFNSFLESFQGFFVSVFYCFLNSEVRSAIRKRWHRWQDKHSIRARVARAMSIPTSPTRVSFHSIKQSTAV
Assay type: cell-based

**Q.** Which IC50 does the source give for `COc1cc(C)nn1C[C@H]1CC[C@H](NC(=O)c2cc(C(F)(F)F)ccc2Cl)CC1` here?
**A.** 67 nM

**Q.** For `Cc1cn(C[C@H]2CC[C@H](NC(=O)c3cc(C(F)(F)F)ccc3Cl)CC2)nc1C`, which IC50 is on record?
**A.** 167 nM

**Q.** With `Cc1ncc(Cl)cc1C(=O)N[C@H]1CC[C@H](Cn2nc(-c3cccnc3)cc2C)CC1` as the compound, how does the IC50 read?
**A.** 142 nM

**Q.** `COc1ccc(-c2c(NC[C@H]3CC[C@H](NC(=O)c4cc(C(F)(F)F)ccc4Cl)CC3)n[nH]c2C)c(Cl)c1` was tested. Which IC50 did it give?
**A.** 35 nM

**Q.** With `CCc1[nH]nc(NC[C@H]2CC[C@H](NC(=O)c3cc(Cl)cnc3C)CC2)c1C` as the compound, how does the IC50 read?
**A.** 134 nM

**Q.** How did the IC50 turn out when `Cc1ncc(Cl)cc1C(=O)N[C@H]1CC[C@H](Cn2cc3c(n2)CCCC3)CC1` was run?
**A.** 318 nM

**Q.** With `Cc1ncc(Cl)cc1C(=O)N[C@H]1CC[C@@H](Cn2nc(-c3ccc(F)cc3)cc2C)CC1` as the compound, how does the IC50 read?
**A.** 180 nM

**Q.** `Cc1cc(C)n(C[C@H]2CC[C@H](NC(=O)c3cc(Cl)cnc3C)CC2)n1` was tested. Which IC50 did it give?
**A.** 88 nM and 262 nM

**Q.** For `CCc1cc(CC)n(C[C@H]2CC[C@H](NC(=O)c3cc(Cl)cnc3C)CC2)n1`, which IC50 is on record?
**A.** 160 nM

**Q.** With `Cc1ncc(Cl)cc1C(=O)N[C@H]1CC[C@H](Cn2nc(CO)cc2C)CC1` as the compound, how does the IC50 read?
**A.** 665 nM

**Q.** How did the IC50 turn out when `Cc1cc(CO)n(C[C@H]2CC[C@H](NC(=O)c3cc(Cl)cnc3C)CC2)n1` was run?
**A.** 6960 nM

**Q.** With `O=C(N[C@H]1CC[C@H](Cn2cc(Cl)c(CO)n2)CC1)c1cc(C(F)(F)F)ccc1Cl` as the compound, how does the IC50 read?
**A.** 95 nM

**Q.** With `Cc1cc(-c2ccc3c(c2)OCO3)nn1C[C@H]1CC[C@H](NC(=O)c2cc(C(F)(F)F)ccc2Cl)CC1` as the compound, how does the IC50 read?
**A.** 59 nM

**Q.** `Cc1cc(C)n(C[C@H]2CC[C@H](NC(=O)c3cc(C(F)(F)F)cnc3C)CC2)n1` was tested. Which IC50 did it give?
**A.** 634 nM

**Q.** For `Cc1cnn(C[C@H]2CC[C@H](NC(=O)c3cc(C(F)(F)F)ccc3Cl)CC2)c1`, which IC50 is on record?
**A.** 132 nM

**Q.** How did the IC50 turn out when `Cc1ncc(Cl)cc1C(=O)N[C@H]1CC[C@H](Cn2nc(C)c(Cl)c2C)CC1` was run?
**A.** 256 nM

**Q.** With `O=C(N[C@H]1CC[C@H](Cn2ncc3c2CCC3)CC1)c1cc(C(F)(F)F)ccc1Cl` as the compound, how does the IC50 read?
**A.** 170 nM

**Q.** `CCc1cc(C)nn1C[C@H]1CC[C@H](NC(=O)c2cc(C(F)(F)F)ccc2Cl)CC1` was tested. Which IC50 did it give?
**A.** 22 nM

**Q.** With `COc1ccc(-c2cc(C)n(C[C@H]3CC[C@H](NC(=O)c4cc(C(F)(F)F)ccc4Cl)CC3)n2)cc1` as the compound, how does the IC50 read?
**A.** 82 nM

**Q.** `CCc1cc(CC)n(C[C@H]2CC[C@H](NC(=O)c3cc(C(F)(F)F)ccc3Cl)CC2)n1` was tested. Which IC50 did it give?
**A.** 21 nM

The compounds below were run against T2, Corticotropin-releasing factor receptor 2 (Homo sapiens, UniProt Q13324) (assay: as §1).
T2 sequence (Q13324 whole entry): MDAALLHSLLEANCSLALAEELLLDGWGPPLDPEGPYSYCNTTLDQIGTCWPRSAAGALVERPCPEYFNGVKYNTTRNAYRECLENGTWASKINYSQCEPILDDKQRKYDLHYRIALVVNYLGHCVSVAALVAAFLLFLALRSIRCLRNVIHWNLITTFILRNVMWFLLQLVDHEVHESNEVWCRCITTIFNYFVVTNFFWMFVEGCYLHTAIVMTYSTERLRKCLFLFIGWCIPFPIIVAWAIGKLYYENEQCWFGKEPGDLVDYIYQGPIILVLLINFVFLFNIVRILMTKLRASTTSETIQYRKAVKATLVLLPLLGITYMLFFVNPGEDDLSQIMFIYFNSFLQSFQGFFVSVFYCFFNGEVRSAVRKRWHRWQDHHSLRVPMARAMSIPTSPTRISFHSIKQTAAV
Assay type: cell-based

**Q.** With `Cc1ncc(Cl)cc1C(=O)N[C@H]1CC[C@H](Cn2nc(-c3cccnc3)cc2C)CC1` as the compound, how does the IC50 read?
**A.** 3740 nM

**Q.** For `CCc1[nH]nc(NC[C@H]2CC[C@H](NC(=O)c3cc(Cl)cnc3C)CC2)c1C`, which IC50 is on record?
**A.** 4880 nM

**Q.** `Cc1ncc(Cl)cc1C(=O)N[C@H]1CC[C@@H](Cn2nc(-c3ccc(F)cc3)cc2C)CC1` was tested. Which IC50 did it give?
**A.** 4630 nM

**Q.** Which IC50 does the source give for `O=C(N[C@H]1CC[C@H](Cn2cc(Cl)c(CO)n2)CC1)c1cc(C(F)(F)F)ccc1Cl` here?
**A.** 4850 nM

**Q.** How did the IC50 turn out when `CCc1cc(C)n(C[C@H]2CC[C@H](NC(=O)c3cc(C(F)(F)F)ccc3Cl)CC2)n1` was run?
**A.** 2030 nM

**Q.** For `Cc1ncc(Cl)cc1C(=O)N[C@H]1CC[C@@H](Cn2nc(-c3ccccc3)cc2C)CC1`, which IC50 is on record?
**A.** 4940 nM
